Source: patent publication US11879140B2, “P21 mRNA targeting DNAzymes” (1E Therapeutics Ltd., priority 2020, dated 2024)

Legend:
human p21 mRNA = experiment: In vitro cleavage assay of human p21 mRNA; assay type: biochemical; conditions: in vitro cleavage of p21 mRNA (SEQ ID NO: 1); RNA substrate 500 nM, 37° C. 60 min, agarose gel
Text: Total RNA was isolates from senescent IMR-90 cells using Nucleospin® RNA kit (Macherey-Nagel™). cDNA was synthesized with gene-specific reverse primers using M-MLV Reverse Transcriptase (Promega), according to the manufacturer's protocol. To generate template for in vitro transcription (IVT) reaction, the cDNA was PCR amplified using KAPA Taq EXtra HotStart® ReadyMix™ PCR Kit (R&D). PCR product was run on 1.5% agarose TAE gel, the correct band size was cut and DNA was cleaned using Wizard® SV Gel and PCR Clean-Up System kit (Promega). IVT was performed using HiScribe™ T7 High Yield RNA Synthesis Kit (NEB). Samples were then treated with DNase I (New England Biolabs) and incubated for 15 minutes at 37° C. IVT product was run on 1.5% agarose TBE gel, the correct band size was cut and RNA was cleaned using QIAquick® Gel Extraction Kit (Qiagen). See primer sequences in Table 1, below.
RNA substrate was diluted with Molecular Biology Grade Water (Biological Industries) and used in in vitro cleavage assay. A 20 μl reaction system comprising RNA substrate (final concentration 500 nM), 2 μl 10× reaction buffer (50 mM Tris-HCl pH 7.4, 100 mM NaCl, 10 mM MgCl2) and 1 μl DNAzyme (10 μM) (as depicted in Table 2, below) was mixed. Reactions were incubated at 37° C. for 60 min. 2×RNA L.D. (Thermo Fisher) was added to each sample. Samples were heated at 70° C. for 30 sec, centrifuged and loaded onto 1.5% agarose TBE gels. Quantification was performed using Image Lab software (Bio Rad).

[1] = test system: senescent human IMR-90 fibroblast cells; assay type: cell-based; conditions: increasing concentrations (FIGS. 6A-C, 12A-C)
Experimental: (§1) Human IMR-90, BJ, WI-38 fibroblasts and REC epithelial cells were obtained from ATCC and grown at 5% oxygen. IMR-90 and REC cells were maintained in DMEM medium comprising 100 units per ml of penicillin, […] of streptomycin and 10% fetal bovine serum. BJ and WI-38 cells were maintained in EMEM medium comprising 100 units per ml of penicillin, […] of streptomycin, 10% fetal bovine serum, 1% Pyruvate, 1% L-Glutamine, mLFs were isolated according to standard procedures [Seluanov, A., et al. J Vis Exp (2010) (44):2033] and grown at 5% oxygen. Cells were maintained in EMEM medium comprising 100 units per ml of penicillin, […] of streptomycin and 15% fetal bovine serum.
(§2) DNA damage induced senescence (DIS) was induced by etoposide treatment (E1383, Sigma) at a concentration of […] for IMR-90, BJ, and WI-38, 16 μM for mLF and 12.5 μM for REC for a duration of 48 hours. Cells acquired the senescence phenotype 7 days post treatment (determined by SA-beta-gal staining).
Oncogene Induced Senescence (OIS) was induced by means of retroviral infection with H-RasG12 (pLNCX2) at 5% oxygen. Retroviruses were packaged, and infections were performed as described below.
Replicative Induced Senescence (RIS) was induced by long-term passaging of the cells in tissue culture. Cells acquired the senescence phenotype after 40 population doublings.
Primary target cells (IMR-90, BJ, […]) were plated in 24-well plates at 100,000 cells per well. Cells were transfected with different concentrations of DNAzymes (as depicted in Table 2, below) using Lipofectamine™ 2000 (Invitrogen) according to manufacturer instructions. The percentage of survival was determined based on quantification of remaining adherent cells using PrestoBlue® reagent (A13262, Life Technologies Ltd.) relative to Lipofectamine™ only control and compared to Scramble DNAzyme (Dz_Scramble) [Scramble Arm (Scr A) sequence: ATCTTCCTFggctagctacaacgaCGCCTCTCC, SEQ ID NO: 5, or Scramble catalytic core (Scr B) sequence: AGGAGAACAacagtaactggcgacGGGATGAGG, SEQ ID NO: 86] treated cells, 3-6 days following transfection.

[2] = test system: senescent lung fibroblasts (WI-38); experiment: Viability assay on WI-38 cells; assay type: cell-based, human; conditions: FIG. 6D
Experimental: as §1, §2
(§3) Primary target cells (IMR-90, BJ, […]) were plated in 24-well plates at 100,000 cells per well. Cells were transfected with different concentrations of DNAzymes (as depicted in Table 2, below) using Lipofectamine™ 2000 (Invitrogen) according to manufacturer instructions. […]

[3] = test system: senescent epithelial kidney cells (REC); experiment: Viability assay on REC cells; assay type: cell-based, human; conditions: FIG. 6D
Experimental: as §1, §2, §3

p21 mRNA = experiment: Quantitative RT-PCR of p21 mRNA in senescent cells; assay type: cell-based, human; conditions: over 24 hours following treatment, 2000 nM (FIG. 5D)
Experimental: Total RNA was extracted from IMR-90 cells using NucleoSpin® RNA (Macherey-Nagel™), according to the manufacturer protocol. Complementary DNA was prepared using the M-MLV Reverse Transcriptase (Promega), according to the manufacturer protocol. Quantitative real-time PCR was performed using the SYBR Green PCR master-mix (Applied Biosystems) on a CFX96 Real-Time PCR System (Bio Rad). See primer sequences in Table 1, above.

mouse p21 mRNA = experiment: In vitro cleavage of mouse p21 mRNA; assay type: biochemical; conditions: in vitro cleavage of mouse p21 mRNA (SEQ ID NO: 3)
[4] = test system: Bleomycin-induced pulmonary fibrosis model mice; experiment: Bleomycin-induced idiopathic pulmonary fibrosis (IPF) mouse model; assay type: in vivo
Experimental: Total RNA from lung samples (post-caval lobe) was extracted using RNAiso (Takara Bio. Japan) according to manufacturer protocol. Reverse transcription was performed using MMLV-RT (Invitrogen). Real-time PCR was performed using TB Green™ Premix Ex Taq™ II (Takara Bio). To calculate the relative mRNA expression level, the expression of each gene (Collagen Type 1) were be normalized to that of reference gene 36B4 (gene symbol: Rplp0).
C57/B6 mice were induced to develop pulmonary fibrosis by a single intra-tracheal administration of Bleomycin hydrochloride (Nippon Kayaku. Japan) in saline at a dose of 3.0 mg/kg, in a volume of 50 μL per animal using Microsprayer® (Penn-Century. USA). Mice that served as the Sham control group were intratracheally administered with saline, instead of the Bleomycin. Mice were initially randomized based on body weight before Bleomycin instillation. At second randomization, Bleomycin-induced pulmonary fibrosis model mice were divided based on the body weight changes on the day before the start of treatment at Day 7. DNAzyme treatment was performed intranasally with 200 μg of DNAzyme resuspended in 50 μL PBS per treatment. PBS intra-nasal treatment served as control. Mice were treated daily following Bleomycin instillation with either DNAzyme or control from day 1 to 20 (prophylactic regimen) or from day 7 to 20 (therapeutic regimen). Body weight, viability, clinical signs and behavior were monitored daily. Mice were sacrificed three weeks following Bleomycin instillation.
Right lung tissues prefixed in 10% neutral buffered formalin were embedded in paraffin and sectioned at 4 μm.
For immunohistochemistry (IHC) staining, sections were subjected to heat induced epitope retrieval (HIER) Following HIER, the sections were incubated rabbit monoclonal anti-p21 antibody [EPR18021] (Abcam) 1:2000 or rabbit monoclonal anti-α-SMA antibody [EPR5368] (Abcam) 1:2000. Section bound primary antibody was detected employing horseradish peroxidase labeled anti-rabbit IgG polymeric reagent.
For Masson's Trichrome staining, the sections were deparaffinized and rehydrated, followed by re-fixation with Bouin's solution for 15 minutes. The sections were stained in Weigert's iron Hematoxylin working solution (Sigma-Aldrich), Biebrich scarlet-Acid fuchsin solution (Sigma-Aldrich), Phosphotungstic/phosphomolybdic Acid solution, Aniline blue solution and 1% Acetic Acid solution (Sigma-Aldrich). For quantitative analysis of lung fibrosis area, bright field images of Masson's Trichrome-stained sections were randomly captured using a digital camera (DFC295; Leica, Germany) at 100-fold magnification, and the subpleural regions in 20 fields/mouse were evaluated according to the criteria for grading lung fibrosis [Ashcroft. T. et al., Simple method of estimating severity of pulmonary fibrosis on a numerical scale. J Clin. Pathol. (1988) 41: 467-470]. All sections were blindly analyzed by an experimenter.
Digital images were analyzed by a custom MATLAB algorithm, using Image Processing Toolbox. First, a binary image was calculated, in order to distinguish background pixels from the lobe pixels. Next, a morphological close operation on the image was preformed, fill of the holes, and extraction of the largest connected component, in order to detect all lobe area, including alveoli. The density of the lobe was defined by the ratio between the stained pixels to the total pixels in the lobe area. For Masson's Trichrome staining, blue pixels were detected and separated from purple staining by specifying RGB (red, green, and blue) constraints. The Collagen percentage in each image was defined by the ratio between the blue pixels to the total pixels in the lobe area.
For p21 staining, an image segmentation algorithm was performed to identify all nuclei in image. Next, cells positive to p21 were detected by RGB and size constraints. […]

Substance | Validated cleavage (human p21 mRNA) | selectivity of killing, senescent versus growing IMR-90 cells [1] | elimination of senescent but not growing WI-38 cells [2] | elimination of senescent but not growing REC cells [3] | p21 mRNA knockdown (p21 mRNA) | Validated cleavage (mouse p21 mRNA) | oxygen saturation in the blood ([4]; FIG. 14A) | number of p21 expressing cells in the lung tissue ([4]; both treatment regimens, IHC day 21 (FIG. 14B)) | Hydroxyproline levels ([4]; left lung, day 21, therapeutic and preventative (FIG. 14E)) | Ashcroft fibrosis score ([4]; lung sections day 21, compared to bleomycin treated group, p=0.0206 (FIG. 10B)) | survival rate ([4]; over 21 days, both therapeutic and preventative regimens, vehicle group 75% (FIG. 10D)) | expression levels of senescence related genes and SASP factors ([4]; post caval lobe, day 21 (FIG. 14C)) | lung tissue density ([4]; therapeutic and preventive groups (FIG. 14F)) | collagen levels (Masson's Trichrome) ([4]; therapeutic and preventive regimens (FIG. 14D))
DNAzyme 1114: SEQ ID NO: 40: AGGAGAACAggctagctacaacgaGGGAUGAGG (DNA AGGAGAACAGGCTAGCTACAACGAGGGAUGAGG; DNA, backbone, methylation of C and T or U not given here) | validated for mediating cleavage of p21 mRNA | maintained over a large range of concentrations | effectively eliminated | effectively eliminated |  |  |  |  |  |  |  |  |  | 
DNAzyme 985: SEQ ID NO: 36: GGGGGCGGtccgagccggacgaAGGGTATGT (GGGGGCGGTCCGAGCCGGACGAAGGGTATGT; DNA, backbone and methylation of C not given here) | validated for mediating cleavage of p21 mRNA | wide range of selective doses |  |  | 73% |  |  |  |  |  |  |  |  | 
Dz_639: targets mouse p21; SEQ ID NO: 85: GGCCGAAGAggctagctacaacgaGGGGAAGAG; used in IPF model (GGCCGAAGAGGCTAGCTACAACGAGGGGAAGAG; chemistry not given here) |  |  |  |  |  | effective | significantly elevated | reduction | reduced | lower | 100% | significantly reduced | reduced | significantly reduced
